What was measured:
[1] = system: exsheathed third-stage larvae (xL3s) of H. contortus; assay: High throughput screen, xL3 motility (infrared light beam-interference); assay type: cell-based; settings: Haemonchus contortus, 90 h, read-out: Motility reduction at 90 h (%)
Experimental: An established platform was used for compound screening ([Taki et al., 2021a]). Using a semi-automated liquid handling robot (VIAFLO ASSIST PLUS, Integra Biosciences), compounds were individually diluted to […] in LB* containing 0.2% (v/v) DMSO and then dispensed in 20 µl into the wells of sterile 384-well flat bottom microtitre plates (cat. no. 3680; Corning); 320 compounds were arrayed on each plate, with 16 wells being negative controls (with LB* + 0.2% DMSO) and four wells containing each monepantel (Zolvix; Elanco), moxidectin (Cydectin; Virbac), monepantel + abamectin (Zolvix Plus; Elanco) and compound MIPS-0018666 (abbreviated here as M-666) ([Le et al., 2018]) as positive controls (20 µM). Following the dilution and dispensing of compounds into plates, 80 H. contortus xL3s in 20 μl of LB* were transferred to individual wells; after this step, the final concentrations were 20 µM of test- or positive-control compound, and 0.2% of DMSO. During dispensing, xL3s were maintained in a homogenous suspension using a constant stream of bubbles produced employing an aquarium pump (H2Pro). Plates containing H. contortus xL3s were incubated at 38 °C, 10% (v/v) CO2 and >90% relative humidity.
After 90 h of incubation with compounds (20 μM), H. contortus xL3s motility was measured for 15 min in individual wells of each plate by infrared light beam-interference ([Simonetta and Golombek, 2007]) using a WMicroTracker ONE instrument (Phylumtech). Raw data captured were normalised against measurements obtained for the positive (monepantel) and negative (LB* + 0.2% DMSO) controls to remove plate-to-plate variation by calculating the percentage of motility using the program GraphPad Prism (v.9.1.2; GraphPad Software). A compound was considered active (“hit”) if it reduced larval motility by ≥ 70%. To continually assess the performance of the screening assay, the Z′-factor ([Zhang et al., 1999]) was calculated (using data for the DMSO and the M-666 controls) for individual plates (n = 43) and was consistently ≥0.7; reliable assays achieve a Z′-factor of between 0.5 and 1. The signal to background (S/B) ratio (for the same controls) ([Sui and Wu, 2007]) was consistently >200.

[2] = system: H. contortus xL3 to L4 development; assay: High throughput screen, larval development and phenotype at 168 h; assay type: cell-based, Haemonchus contortus; settings: for inhibition at 20 µM: Haemonchus contortus, development to L4; for Abnormal phenotype detected at 168 h: 20 µM
Experimental: Following the measurement of xL3 motility, plates were incubated again for 78 h (i.e., a total of 168 h) under the same conditions. Thereafter, 40 µl of 1% (v/v) iodine were added to individual wells, and worms examined using a light microscope (M80, Leica) at 60-times magnification to assess larval development, based on the presence/absence of a well-developed pharynx ([Sommerville, 1966]), and/or phenotypic alterations with respect to untreated xL3s.

| SMILES | inhibition at 20 µM [1] [%] | inhibition at 20 µM [2] [%] | Abnormal phenotype detected at 168 h [2] |
| --- | --- | --- | --- |
| N#CC(C#N)=NNc1ccc(C(F)(F)F)cc1 [MBHF-hit1, 2-{2-[4-(trifluoromethyl)phenyl]hydrazono}malononitrile] | 102 | 100 |  |
| C(#Cc1ccc(-c2cc[nH]n2)s1)c1ccccc1 [MBHF-hit2, 3-[5-(2-phenyleth-1-ynyl)-2-thienyl]-1H-pyrazole] | 98.4 | 100 | Cur, Evi |
| CC(=NOc1nc(-c2ccccc2)ns1)c1cccs1 [MBHF-hit3, 1-(2-thienyl)-1-ethanone O-(3-phenyl-1,2,4-thiadiazol-5-yl)oxime] | 96.4 | < 80 | Cur, Evi |
| CCCCOc1ccc(-c2ccc(C#N)cc2)cc1 [MBHF-hit4, 4'-butoxy[1,1'-biphenyl]-4-carbonitrile] | 95.6 | 100 | Cur, Evi |
| N#CC(=NNc1ccc(Cl)cc1Cl)C(=O)c1ccc(Cl)cc1 [MBHF-hit5, 3-(4-chlorophenyl)-2-[2-(2,4-dichlorophenyl)hydrazono]-3-oxopropanenitrile] | 95.2 | 100 |  |
| C(#Cc1ccc(-c2ccn[nH]2)cc1)c1ccccc1 [MBHF-hit6, 5-[4-(2-phenyleth-1-ynyl)phenyl]-1H-pyrazole] | 94 | 100 | Cur, Evi |
| CSc1c(-c2ccc(Cl)cc2)[nH]c2ccccc12 [MBHF-hit7, 2-(4-chlorophenyl)-3-(methylthio)-1H-indole] | 91.9 | 100 | Cur, Evi |
| N#Cc1c(Cl)c(Cl)c(Cl)c(Cl)c1C#N [MBHF-hit8, 3,4,5,6-tetrachlorophthalonitrile] | 91 | < 80 |  |
| O=C(C=CSc1ccc(Cl)cc1)c1cccs1 [MBHF-hit9, 3-[(4-chlorophenyl)thio]-1-(2-thienyl)prop-2-en-1-one] | 89.4 | 100 |  |
| O=C(c1cc(C(F)(F)F)cc(C(F)(F)F)c1)N1CCC(O)(c2ccc(Cl)cc2)CC1 [MBHF-hit10, [3,5-bis(trifluoromethyl)phenyl][4-(4-chlorophenyl)-4-hydroxypiperidino]methanone] | 84.2 | < 80 |  |
| Nc1ccccc1C(=O)N1CCN(c2ccc([N+](=O)[O-])cn2)CC1 [MBHF-hit11, (2-aminophenyl)[4-(5-nitro-2-pyridyl)piperazino]methanone] | 82.7 | < 80 |  |
| O=C(Nc1ccc(F)cc1)Nc1cnn(-c2ccc([N+](=O)[O-])cc2)c1C(F)(F)F [MBHF-hit12, N-(4-fluorophenyl)-N'-[1-(4-nitrophenyl)-5-(trifluoromethyl)-1H-pyrazol-4-yl]urea] | 82.3 | 80 to 99 | Cur, Evi |
| CC1=CSC(=C(C#N)C(=O)c2ccccc2Cl)N1c1ccccc1Cl [MBHF-hit13, 3-(2-chlorophenyl)-2-[3-(2-chlorophenyl)-4-methyl-1,3-thiazol-2(3H)-ylidene]-3-oxopropanenitrile] | 78.8 | < 80 |  |
| Cc1ccc2oc(=O)n(CCC(N)=NOC(=O)c3ccccc3)c2c1 [MBHF-hit14, N'-(benzoyloxy)-3-[5-methyl-2-oxo-1,3-benzoxazol-3(2H)-yl]propanimidamide] | 81.6 | < 80 |  |
| NC(=O)C1CCN(C(=O)c2ccc(Oc3cc(Cl)cc(Cl)c3)o2)CC1 [MBHF-hit15, 1-{[5-(3,5-dichlorophenoxy)-2-furyl]carbonyl}-4-piperidinecarboxamide] | 78.7 | < 80 |  |
| COc1ccc(SCc2nsc(Sc3ccc(OC)cc3)n2)cc1 [MBHF-hit16, 5-[(4-methoxyphenyl)thio]-3-{[(4-methoxyphenyl)thio]methyl}-1,2,4-thiadiazole] | 78.5 | 80 to 99 | Cur, Evi |
| N#CC(=NNc1cccc(C(F)(F)F)c1)C(=O)c1csc(-c2cccnc2)n1 [MBHF-hit18, 3-oxo-3-[2-(3-pyridyl)-1,3-thiazol-4-yl]-2-{2-[3-(trifluoromethyl)phenyl]hydrazono}propanenitrile] | 77.1 | < 80 |  |

| SMILES | inhibition at 20 µM [1] [%] | inhibition at 20 µM [2] [%] | Abnormal phenotype detected at 168 h [2] |
| --- | --- | --- | --- |
| CCCc1ccc(-c2ccc(C#N)cc2)nc1 [MBHF-hit19, 4-(5-propyl-2-pyridyl)benzonitrile] | 76.9 | < 80 |  |
| O=C(c1ccc(-c2cccs2)s1)c1ccc(F)cc1F [MBHF-hit20, (2,4-difluorophenyl)[5-(2-thienyl)-2-thienyl]methanone] | 76.7 | 100 | Str, Cur |
| O=C1c2ccccc2C(=O)N1CCSCc1cccc(C(F)(F)F)c1 [MBHF-hit21, 2-(2-{[3-(trifluoromethyl)benzyl]thio}ethyl)-1H-isoindole-1,3(2H)-dione] | 76.5 | 100 | Cur, Evi |
| CC12NC(=O)NC1(C)NC(=O)N2 (stereo not drawn) [MBHF-hit22, 3a,6a-dimethylperhydroimidazo[4,5-d]imidazole-2,5-dione] | 76.3 | < 80 |  |
| CC(C)c1cc(Br)c(NC(=O)NCc2ccco2)c(Br)c1 [MBHF-hit23, N-(2,6-dibromo-4-isopropylphenyl)-N'-(2-furylmethyl)urea] | 74.8 | < 80 |  |
| Cc1nc2c(cnn2-c2ccccc2)c(=O)o1 [MBHF-hit24, 6-methyl-1-phenylpyrazolo[3,4-d][1,3]oxazin-4(1H)-one] | 74.6 | < 80 |  |
| CCCCCc1cnc(-c2ccc(C#N)cc2)nc1 [MBHF-hit25, 4-(5-pentylpyrimidin-2-yl)benzonitrile] | 74.5 | 100 | Cur, Evi |
| Clc1ccc(Oc2ccnc3cc(Cl)ccc23)cc1 [MBHF-hit26, 7-chloro-4-(4-chlorophenoxy)quinoline] | 73.9 | 80 to 99 | Cur, Evi |
| COc1c(C(=O)NCc2ccc(Cl)cc2)csc1Cl [MBHF-hit27, 5-chloro-N-(4-chlorobenzyl)-4-methoxy-3-thiophenecarboxamide] | 73.4 | < 80 | Cur, Evi |
| CC(=O)c1ccc(NC(=O)CSc2nnc(-c3ccco3)n2C)cc1 [MBHF-hit28, N-(4-acetylphenyl)-2-{[5-(2-furyl)-4-methyl-4H-1,2,4-triazol-3-yl]sulfanyl}acetamide] | 72.7 | < 80 |  |
| CS(=O)(=O)c1ccc2ccn(O)c2c1 [MBHF-hit29, 6-(methylsulfonyl)-1H-indol-1-ol] | 72 | < 80 |  |
| O=S1(=O)CC=C(Cl)C1 [MBHF-hit30, 3-chloro-2,5-dihydro-1H-1lambda~6~-thiophene-1,1-dione] | 71.5 | < 80 |  |
| O=[N+]([O-])c1ccc2c(c1)CCN2S(=O)(=O)c1ccccc1 [MBHF-hit31, 5-nitro-1-(phenylsulfonyl)indoline] | 71.5 | < 80 |  |
| c1ccc(COc2ccc(CCC3OCCO3)cc2)cc1 [MBHF-hit32, 2-[4-(benzyloxy)phenethyl]-1,3-dioxolane] | 71.1 | < 80 |  |
| FC(F)(F)c1ccc(SCc2ccc(-c3ncns3)cc2)nc1 [MBHF-hit33, 5-[4-({[5-(trifluoromethyl)-2-pyridyl]thio}methyl)phenyl]-1,2,4-thiadiazole] | 70.3 | 80 to 99 | Cur, Evi |
| CSC(=NS(=O)(=O)c1ccc(C)cc1)N(C)C [MBHF-hit34, N1-[(dimethylamino)(methylthio)methylidene]-4-methylbenzene-1-sulfonamide] | 70.3 | < 80 |  |
| OC(CNCCNc1nccc(C(F)(F)F)n1)c1ccccc1 (stereo not drawn) [MBHF-hit35, 1-phenyl-2-[(2-{[4-(trifluoromethyl)pyrimidin-2-yl]amino}ethyl)amino]ethan-1-ol] | 70.2 | < 80 |  |
